Experiments:
[1] = log P by HPLC on reversed-phase column (C18), EEC directive 79/831 Annex V.A8; assay type: physicochemical; conditions: for log p: HPLC reversed-phase C18, 43° C., data refer to the E isomer
Experimental: The log P values reported in the tables and Preparation Examples above were determined in accordance with EEC directive 79/831 Annex V.A8 by HPLC (High Performance Liquid Chromatography) using a reversed-phase column (C18). Temperature 43° C. The calibration is effected with unbranched alkan-2-ones (having 3 to 16 carbon atoms), for which the log P values are known.

[2] = system: Myzus persicae; test: Myzus persicae - spray test (MYZUPE); assay type: in vivo; conditions: application rate 100 g/ha, Chinese cabbage leaf disks
Experimental: Myzus persicae—Spray Test (MYZUPE)
Solvent: 78 parts by weight of acetone • • 1.5 parts by weight of dimethylformamide
(§1) Emulsifier: 0.5 parts by weight of alkylaryl polyglycol ether
(§2) To produce a suitable active compound preparation, 1 part by weight of active compound is mixed with the stated amounts of solvent and emulsifier, and the concentrate is diluted with emulsifier-containing water to the desired concentration.
Disks of Chinese cabbage leaves (Brassica pekinensis) infested by all stages of the green peach aphid (Myzus persicae) are sprayed with an active compound preparation of the desired concentration.
After the desired period of time, the efficacy in % is determined. 100% means that all the aphids have been killed; 0% means that none of the aphids have been killed.

[3] = system: Spodoptera frugiperda; test: Spodoptera frugiperda - spray test (SPODFR); assay type: in vivo; conditions: application rate 100 g/ha, maize leaf disks
Summary of the method: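 Maize leaf disks sprayed with compound in acetone/DMF with alkylaryl polyglycol ether emulsifier, diluted in water to test concentration, then infested with armyworm caterpillars once dry. Efficacy given as % caterpillars killed (100% all, 0% none) after the chosen period.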

[4] = system: Tetranychus urticae; test: Tetranychus urticae - spray test, OP-resistant (TETRUR); assay type: in vivo; conditions: application rate 100 g/ha, bean leaf disks
Experimental: Tetranychus urticae—Spray Test, OP-Resistant (TETRUR)
(§3) Solvent: 78.0 parts by weight of acetone • • 1.5 parts by weight of dimethylformamide
as §1, §2
Disks of bean leaves (Phaseolus vulgaris) infested with all stages of the greenhouse red spider mite (Tetranychus urticae) are sprayed with an active compound preparation of the desired concentration.
After the desired period of time, the efficacy in % is determined. 100% means that all the spider mites have been killed; 0% means that none of the spider mites have been killed.

[5] = system: Phaedon cochleariae; test: Phaedon cochleariae - spray test (PHAECO); assay type: in vivo; conditions: application rate 100 g/ha, Chinese cabbage leaf disks
Experimental: Phaedon cochleariae—Spray Test (PHAECO)
as §3, §1, §2
After the desired period of time, the efficacy in % is determined. 100% means that all the beetle larvae have been killed; 0% means that no beetle larvae have been killed.

[6] = system: Boophilus microplus; test: Boophilus microplus - injection test (BOOPMI Inj); assay type: in vivo; conditions: application rate 20 μg/animal, injection into engorged adult female cattle ticks
Experimental: Boophilus microplus—Injection Test (BOOPMI Inj)
(§4) Solvent: dimethyl sulfoxide
To produce a suitable preparation of active compound, 10 mg of active compound are mixed with 0.5 ml of solvent and the concentrate is diluted with solvent to the desired concentration.
1 μl of the active compound solution is injected into the abdomen of 5 engorged adult female cattle ticks (Boophilus microplus). The animals are transferred into dishes and kept in a climate-controlled room.
The activity is assessed after the desired time by laying of fertile eggs. Eggs which are not visibly fertile are stored in a climate-controlled cabinet until the larvae hatch after about 42 days. An efficacy of 100% means that none of the ticks has laid any fertile eggs; 0% means that all the eggs are fertile.

[7] = system: Lucilia cuprina; test: Lucilia cuprina test (LUCICU); assay type: in vivo; conditions: application rate 100 ppm
Experimental: Lucilia cuprina-Test (LUCICU)
as §4
To produce a suitable preparation of active compound, 10 mg of active compound are mixed with 0.5 ml of dimethyl sulfoxide, and the concentrate is diluted with water to the desired concentration.
About 20 L1 larvae of the Australian sheep blowfly (Lucilia cuprina) are transferred into a test vessel containing minced horsemeat and the active compound preparation of the desired concentration.
After the desired time, the kill in % is determined. 100% means that all the larvae have been killed; 0% means that no larvae have been killed.

Structure (SMILES)	log p ([1]; Table C)	efficacy (aphids killed) [2] [%]	efficacy (caterpillars killed) [3] [%]	efficacy (spider mites killed) [4] [%]	log p ([1]; Table A)	efficacy (beetle larvae killed) [5] [%]	efficacy (no fertile eggs laid) [6] [%]	efficacy (kill of L1 larvae) [7] [%]	chromatographic logP ([1]; log P)	chromatographic logP ([1]; log p)	log p ([1]; Table B)
COCC(C)NC(=O)c1cc(C=NOC)cc(C)c1NC(=O)c1cc(OC)nn1-c1ncccc1Cl (stereo not drawn) [C-41]	2.51	100	100	90	–	–	–	–	–	–	–
CON=Cc1cc(C)c(NC(=O)c2cc(C(F)(F)F)nn2-c2ncccc2Cl)c(C(=O)NN(C)C(=O)OC)c1 (mixture of isomers) [A-46]	–	90	100	100	2.85	100	–	–	–	–	–
CON=Cc1cc(C)c(NC(=O)c2cc(CF)nn2-c2ncccc2Cl)c(C(=O)NC(C)(C)C)c1 [C-44]	3.00	100	100	90	–	100	–	–	–	–	–
CON=Cc1cc(C)c(NC(=O)c2cc(OC)nn2-c2ncccc2Cl)c(C(=O)NN(C)C(=O)OC)c1 (mixture of isomers) [A-43]	–	100	100	100	2.19	100	–	–	–	–	–
CON=Cc1cc(C)c(NC(=O)c2cc(C(F)(F)F)nn2-c2ncccc2Cl)c(C(=O)NNC(=O)OC)c1 [A-04]	–	100	100	–	2.65	100	100	100	–	–	–
CO/N=C/c1cc(C)c(NC(=O)c2cc(OC(F)F)nn2-c2ncccc2Cl)c(C(=O)NNC(=O)OC)c1 [A-02, Methyl 2-{2-({[1-(3-chloropyridin-2-yl)-3-(difluoromethoxy)-1H-pyrazol-5-yl]carbonyl}amino)-5-[(E)-(methoxyimino)methyl]-3-methylbenzoyl}hydrazinecarboxylate]	–	90	100	90	–	100	–	–	2.28	2.38	–
CNC(=O)c1cc(C=NOC)cc(C)c1NC(=O)c1cc(CF)nn1-c1ncccc1Cl [C-45]	2.14	100	100	100	–	100	–	–	–	–	–
CNC(=O)c1cc(C=NOC)cc(C)c1NC(=O)c1cc(OCC(F)F)nn1-c1ncccc1Cl [C-20]	2.57	90	100	–	–	83	100	100	–	–	–
CON=Cc1cc(C)c(NC(=O)c2cc(OC(C)C)nn2-c2ncccc2Cl)c(C(=O)NNC(=O)OC)c1 (mixture of isomers) [A-35]	–	90	100	–	2.54	100	–	–	–	–	–
CCNC(=O)c1cc(C=NOC)cc(C)c1NC(=O)c1cc(OCC(F)F)nn1-c1ncccc1Cl [C-46]	2.81	100	100	–	–	–	100	100	–	–	–
CCNC(=O)c1cc(C=NOC)cc(C)c1NC(=O)c1cc(CF)nn1-c1ncccc1Cl [C-53]	2.39	90	100	–	–	100	–	–	–	–	–
CCOc1cc(C(=O)Nc2c(C)cc(C=NOC)cc2C(=O)NC(C)C2CC2)n(-c2ncccc2Cl)n1 (stereo not drawn) [C-27]	3.38	90	100	–	–	100	–	–	–	–	–
CON=Cc1cc(C)c(NC(=O)c2cc(C(F)F)nn2-c2ncccc2Cl)c(C(=O)NC2COC2)c1 (mixture of isomers) [B-11]	–	100	100	–	–	100	–	–	–	–	2.31
CON=Cc1cc(C)c(NC(=O)c2cc(CF)nn2-c2ncccc2Cl)c(C(=O)NC(C)C2CC2)c1 (stereo not drawn) [C-43]	2.96	90	100	90	–	100	–	–	–	–	–
CON=Cc1cc(C)c(NC(=O)c2cc(C(F)F)nn2-c2ncccc2Cl)c(C(=O)NN(C)C(=O)OC)c1 (mixture of isomers) [A-47]	–	90	100	–	2.21	100	–	–	–	–	–
CON=Cc1cc(C)c(NC(=O)c2cc(OC(C)C)nn2-c2ncccc2Cl)c(C(=O)NC(C)(C)C)c1 [C-09]	3.74	100	100	–	–	100	–	–	–	–	–
CON=Cc1cc(C)c(NC(=O)c2cc(C(F)F)nn2-c2ncccc2Cl)c(C(=O)NC2CC2)c1 [C-34]	2.72	100	100	–	–	100	100	100	–	–	–
CON=Cc1cc(C)c(NC(=O)c2cc(C(F)F)nn2-c2ncccc2Cl)c(C(=O)NC(C)C2CC2)c1 (stereo not drawn) [C-36]	3.29	90	100	–	–	100	–	–	–	–	–
C=CCOC(=O)NNC(=O)c1cc(C=NOC)cc(C)c1NC(=O)c1cc(C(F)(F)F)nn1-c1ncccc1Cl [A-21]	–	90	100	–	3.04	100	–	–	–	–	–
CON=Cc1cc(C)c(NC(=O)c2cc(C(F)(F)F)nn2-c2ncccc2Cl)c(C(=O)N(C)NC(=O)Oc2ccccc2)c1 [A-26]	–	–	100	90	3.72	–	–	–	–	–	–
CCOc1cc(C(=O)Nc2c(C)cc(C=NOC)cc2C(=O)NNC(=O)OC)n(-c2ncccc2Cl)n1 (mixture of isomers) [A-34]	–	90	100	–	2.26	100	–	–	–	–	–
CON=Cc1cc(C)c(NC(=O)c2cc(C(F)(F)F)nn2-c2ncccc2Cl)c(C(=O)NC2CSC2)c1 (mixture of isomers) [B-06]	–	90	100	–	–	100	–	–	–	–	3.46
CON=Cc1cc(C)c(NC(=O)c2cc(Br)nn2-c2ncccc2Cl)c(C(=O)NC2COC2)c1 (mixture of isomers) [B-03]	–	100	100	–	–	100	–	–	–	–	2.44
CNC(=O)c1cc(C=NOC)cc(C)c1NC(=O)c1cc(OC)nn1-c1ncccc1Cl (mixture of isomers) [C-33]	2.70	90	100	–	–	100	–	–	–	–	–
CNC(=O)c1cc(C=NOC)cc(C)c1NC(=O)c1cc(OC)nn1-c1ncccc1Cl [C-22]	2.15	100	100	–	–	100	–	–	–	–	–
CON=Cc1cc(C)c(NC(=O)c2cc(C(F)(F)F)nn2-c2ncccc2Cl)c(C(=O)N(C)NC(=O)OC)c1 (mixture of isomers) [A-48]	–	100	100	–	3.00	100	–	–	–	–	–

Source: US9609868B2, “Alkoximino-substituted anthranilic acid diamides as pesticides” (BAYER CROPSCIENCE AKTIENGESELLSCHAFT, priority 2013, dated 2017)
